± gives the standard deviation of the averaged measurements.
What was measured:
[1] = compound: CC(=O)NCC(=O)N1[C@@H]2CC[C@H]1c1ccc(Nc3ncc(C(F)(F)F)c(NC4CCC4)n3)cc12; assay: surviving fraction relative to DMSO-only wells; higher = less growth inhibition; details: exposure time: 5 days
Summary of the method: (§1)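 Continuous five-day exposure to inhibitors at 0.5, 1, 5, 10, 50, 100, 500 and 1000 nM started 24 hours after log-phase tumour cell lines were seeded at 250–500 cells per well in 384-well plates. Luminescence was read after 10 minutes at room temperature. Viability is given as surviving fraction, meaning CellTiter-Glo luminescence normalised to the median of DMSO-only wells.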

PACLITAXEL [2] = compound: T1, CC(=O)O[C@H]1C(=O)[C@@]2(C)[C@H]([C@H](OC(=O)c3ccccc3)[C@]3(O)C[C@H](OC(=O)[C@H](O)[C@@H](NC(=O)c4ccccc4)c4ccccc4)C(C)=C1C3(C)C)[C@]1(OC(C)=O)CO[C@@H]1C[C@@H]2O [PACLITAXEL]; assay: as above; details: exposure time: 5 days
Summary of the method: as §1

[3] = compound: CC(=O)c1c(C)c2cnc(Nc3ccc(N4CCNCC4)cn3)nc2n(C2CCCC2)c1=O; assay: as above; details: exposure time: 5 days
Summary of the method: as §1

CAMPTOTHECIN [4] = compound: T2, CC[C@@]1(O)C(=O)OCc2c1cc1n(c2=O)Cc2cc3ccccc3nc2-1 [CAMPTOTHECIN]; assay: as above; details: exposure time: 5 days
Summary of the method: as §1

YM155 [5] = compound: T3, COCC[n+]1c2c(n(Cc3cnccn3)c1C)C(=O)c1ccccc1C2=O [YM155]; assay: as above; details: exposure time: 5 days
Summary of the method: as §1

GEFITINIB [6] = compound: T4, COc1cc2ncnc(Nc3ccc(F)c(Cl)c3)c2cc1OCCCN1CCOCC1 [GEFITINIB]; assay: as above; details: exposure time: 5 days
Summary of the method: as §1

OSI-906 [7] = compound: T5, C[C@]1(O)C[C@@H](c2nc(-c3ccc4ccc(-c5ccccc5)nc4c3)c3c(N)nccn32)C1 [OSI-906]; assay: as above; details: exposure time: 5 days
Summary of the method: as §1

CELECOXIB [8] = compound: T6, Cc1ccc(-c2cc(C(F)(F)F)nn2-c2ccc(S(N)(=O)=O)cc2)cc1 [CELECOXIB]; assay: as above; details: exposure time: 5 days
Summary of the method: as §1

CARBOPLATIN [9] = compound: T7, O=C(O)C1(C(=O)O)CCC1.[NH2-].[NH2-].[Pt+2] [CARBOPLATIN]; assay: as above; details: exposure time: 5 days
Summary of the method: as §1

PACLITAXEL [10] = compound: T1, PACLITAXEL; assay: area under dose-response curve of surviving fraction (unscaled, Aref=0) (surviving fraction x log10(nM)); higher = more resistant; details: exposure time: 5 days; dose range 0.5-1000 nM
Summary of the method: (§2)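 Three screens per tumour cell line were run in 384-well plates at eight inhibitor concentrations from 0.5 to 1000 nM over five days. Surviving fractions, from CellTiter-Glo luminescence normalised to DMSO-only wells, were fitted with 3-parameter logistic curves in the drc R package. The reported area under the curve is the unscaled activity area. It spans log10 dose, and Aref is 0.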

[11] = compound: CC(=O)c1c(C)c2cnc(Nc3ccc(N4CCNCC4)cn3)nc2n(C2CCCC2)c1=O; assay: as above; details: exposure time: 5 days; dose range 0.5-1000 nM
Summary of the method: as §2

CAMPTOTHECIN [12] = compound: T2, CAMPTOTHECIN; assay: as above; details: exposure time: 5 days; dose range 0.5-1000 nM
Summary of the method: as §2

YM155 [13] = compound: T3, YM155; assay: as above; details: exposure time: 5 days; dose range 0.5-1000 nM
Summary of the method: as §2

GEFITINIB [14] = compound: T4, GEFITINIB; assay: as above; details: exposure time: 5 days; dose range 0.5-1000 nM
Summary of the method: as §2

OSI-906 [15] = compound: T5, OSI-906; assay: as above; details: exposure time: 5 days; dose range 0.5-1000 nM
Summary of the method: as §2

CELECOXIB [16] = compound: T6, CELECOXIB; assay: as above; details: exposure time: 5 days; dose range 0.5-1000 nM
Summary of the method: as §2

CARBOPLATIN [17] = compound: T7, CARBOPLATIN; assay: as above; details: exposure time: 5 days; dose range 0.5-1000 nM
Summary of the method: as §2

Test System: SKBR3 BREAST
- surviving fraction ([1]; 0.5 nM): 1.09 ± 0.12
- surviving fraction ([1]; 1 nM): 0.942 ± 0.2
- surviving fraction ([1]; 5 nM): 1.07 ± 0.18
- surviving fraction ([1]; 10 nM): 1 ± 0.16
- surviving fraction ([1]; 50 nM): 0.762 ± 0.06
- surviving fraction ([1]; 100 nM): 0.892 ± 0.14
- surviving fraction ([1]; 500 nM): 1.13 ± 0.039
- surviving fraction ([1]; 1000 nM): 0.865 ± 0.17
- surviving fraction (PACLITAXEL [2]; 0.5 nM): 0.925 ± 0.13
- surviving fraction (PACLITAXEL [2]; 1 nM): 0.413 ± 0.061
- surviving fraction (PACLITAXEL [2]; 5 nM): 0.165 ± 0.0059
- surviving fraction (PACLITAXEL [2]; 10 nM): 0.157 ± 0.02
- surviving fraction (PACLITAXEL [2]; 50 nM): 0.135 ± 0.023
- surviving fraction (PACLITAXEL [2]; 100 nM): 0.139 ± 0.013
- surviving fraction (PACLITAXEL [2]; 500 nM): 0.123 ± 0.015
- surviving fraction (PACLITAXEL [2]; 1000 nM): 0.136 ± 0.028
- surviving fraction ([3]; 0.5 nM): 1.04 ± 0.16
- surviving fraction ([3]; 1 nM): 1.12 ± 0.066
- surviving fraction ([3]; 5 nM): 0.958 ± 0.06
- surviving fraction ([3]; 10 nM): 0.987 ± 0.22
- surviving fraction ([3]; 50 nM): 0.923 ± 0.056
- surviving fraction ([3]; 100 nM): 0.892 ± 0.12
- surviving fraction ([3]; 500 nM): 0.82 ± 0.085
- surviving fraction ([3]; 1000 nM): 0.855 ± 0.067
- surviving fraction (CAMPTOTHECIN [4]; 0.5 nM): 0.83 ± 0.073
- surviving fraction (CAMPTOTHECIN [4]; 1 nM): 0.806 ± 0.029
- surviving fraction (CAMPTOTHECIN [4]; 5 nM): 0.757 ± 0.1
- surviving fraction (CAMPTOTHECIN [4]; 10 nM): 0.529 ± 0.029
- surviving fraction (CAMPTOTHECIN [4]; 50 nM): 0.222 ± 0.01
- surviving fraction (CAMPTOTHECIN [4]; 100 nM): 0.166 ± 0.013
- surviving fraction (CAMPTOTHECIN [4]; 500 nM): 0.0683 ± 0.0042
- surviving fraction (CAMPTOTHECIN [4]; 1000 nM): 0.0517 ± 0.0049
- surviving fraction (YM155 [5]; 0.5 nM): 0.89 ± 0.03
- surviving fraction (YM155 [5]; 1 nM): 0.849 ± 0.055
- surviving fraction (YM155 [5]; 5 nM): 0.825 ± 0.024
- surviving fraction (YM155 [5]; 10 nM): 0.53 ± 0.071
- surviving fraction (YM155 [5]; 50 nM): 0.0403 ± 0.012
- surviving fraction (YM155 [5]; 100 nM): 0.0253 ± 0.0067
- surviving fraction (YM155 [5]; 500 nM): 0.0247 ± 0.0074
- surviving fraction (YM155 [5]; 1000 nM): 0.0243 ± 0.0058
- surviving fraction (GEFITINIB [6]; 0.5 nM): 1 ± 0.18
- surviving fraction (GEFITINIB [6]; 1 nM): 1.04 ± 0.14
- surviving fraction (GEFITINIB [6]; 5 nM): 1.04 ± 0.089
- surviving fraction (GEFITINIB [6]; 10 nM): 1.02 ± 0.11
- surviving fraction (GEFITINIB [6]; 50 nM): 1 ± 0.062
- surviving fraction (GEFITINIB [6]; 100 nM): 0.844 ± 0.026
- surviving fraction (GEFITINIB [6]; 500 nM): 0.361 ± 0.0087
- surviving fraction (GEFITINIB [6]; 1000 nM): 0.249 ± 0.03
- surviving fraction (OSI-906 [7]; 0.5 nM): 0.752 ± 0.012
- surviving fraction (OSI-906 [7]; 1 nM): 0.765 ± 0.027
- surviving fraction (OSI-906 [7]; 5 nM): 0.814 ± 0.11
- surviving fraction (OSI-906 [7]; 10 nM): 0.841 ± 0.0095
- surviving fraction (OSI-906 [7]; 50 nM): 1.05 ± 0.11
- surviving fraction (OSI-906 [7]; 100 nM): 0.871 ± 0.11
- surviving fraction (OSI-906 [7]; 500 nM): 0.786 ± 0.07
- surviving fraction (OSI-906 [7]; 1000 nM): 0.681 ± 0.062
- surviving fraction (CELECOXIB [8]; 0.5 nM): 1.15 ± 0.096
- surviving fraction (CELECOXIB [8]; 1 nM): 1.11 ± 0.11
- surviving fraction (CELECOXIB [8]; 5 nM): 1.019 ± 0.0061
- surviving fraction (CELECOXIB [8]; 10 nM): 1.02 ± 0.085
- surviving fraction (CELECOXIB [8]; 50 nM): 0.999 ± 0.091
- surviving fraction (CELECOXIB [8]; 100 nM): 1.07 ± 0.042
- surviving fraction (CELECOXIB [8]; 500 nM): 0.996 ± 0.17
- surviving fraction (CELECOXIB [8]; 1000 nM): 1.08 ± 0.063
- surviving fraction (CARBOPLATIN [9]; 0.5 nM): 1.01 ± 0.098
- surviving fraction (CARBOPLATIN [9]; 1 nM): 1.06 ± 0.1
- surviving fraction (CARBOPLATIN [9]; 5 nM): 1.06 ± 0.11
- surviving fraction (CARBOPLATIN [9]; 10 nM): 0.987 ± 0.2
- surviving fraction (CARBOPLATIN [9]; 50 nM): 1.08 ± 0.049
- surviving fraction (CARBOPLATIN [9]; 100 nM): 1.04 ± 0.073
- surviving fraction (CARBOPLATIN [9]; 500 nM): 1.07 ± 0.073
- surviving fraction (CARBOPLATIN [9]; 1000 nM): 1.03 ± 0.14
- area under dose-response curve (PACLITAXEL [10]): 0.673
- area under dose-response curve [11]: 3.09
- area under dose-response curve (CAMPTOTHECIN [12]): 1.42
- area under dose-response curve (YM155 [13]): 1.36
- area under dose-response curve (GEFITINIB [14]): 2.78
- area under dose-response curve (OSI-906 [15]): 2.71
- area under dose-response curve (CELECOXIB [16]): 3.44
- area under dose-response curve (CARBOPLATIN [17]): 3.44
